Results from PMC11882969 (Nature Communications, 2025).
“And” between values parts separate entries of the source, which are not always exact repeats. Equal values may be shown once. Read-outs that look alike come from different tables or passages of the source.

Tests used:
hCB1 [1] = biological target: T1, hCB1 (Homo sapiens, UniProt P21554); test: bioSensAll ebBRET signaling profiling, hCB1; format: cell-based; design: host or cells: HEK293SL cells, transient PEI transfection; conditions: for Gi1 hCB1 / GoB hCB1: single replicate values, FigS6a; for EC50: read-out: EC50 [95% CI]; for Emax: normalized to CP-55,940
CB1 (rCB1) = CB1 (rCB1) (Rattus norvegicus, UniProt P20272); test: Single-point radioligand displacement screen; format: binding; conditions: 10 µM, 1 µM or 300 nM by cell colour (not visible)
hCB1 [2] = biological target: T1, hCB1; test: Tango β-arrestin-2 recruitment, HTLA cells, CB1R; format: cell-based; design: expressed in transfected cells; host or cells: HTLA cells (gift of R. Axel), transient transfection

T1 sequence (P21554 whole entry): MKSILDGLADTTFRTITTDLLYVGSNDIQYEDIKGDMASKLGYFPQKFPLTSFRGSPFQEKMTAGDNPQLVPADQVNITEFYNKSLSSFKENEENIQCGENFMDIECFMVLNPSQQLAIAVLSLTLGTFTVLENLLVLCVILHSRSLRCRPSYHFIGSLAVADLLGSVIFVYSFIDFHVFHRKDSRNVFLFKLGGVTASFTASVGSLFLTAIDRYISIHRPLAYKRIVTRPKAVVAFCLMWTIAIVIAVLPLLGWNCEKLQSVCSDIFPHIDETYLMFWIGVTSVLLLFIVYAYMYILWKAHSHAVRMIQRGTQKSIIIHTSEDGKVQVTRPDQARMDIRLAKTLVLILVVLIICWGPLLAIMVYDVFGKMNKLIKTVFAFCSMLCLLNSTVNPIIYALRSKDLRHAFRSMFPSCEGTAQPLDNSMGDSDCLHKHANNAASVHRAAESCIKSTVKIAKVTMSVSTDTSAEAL
CB1 (rCB1), sequence (P20272 whole entry): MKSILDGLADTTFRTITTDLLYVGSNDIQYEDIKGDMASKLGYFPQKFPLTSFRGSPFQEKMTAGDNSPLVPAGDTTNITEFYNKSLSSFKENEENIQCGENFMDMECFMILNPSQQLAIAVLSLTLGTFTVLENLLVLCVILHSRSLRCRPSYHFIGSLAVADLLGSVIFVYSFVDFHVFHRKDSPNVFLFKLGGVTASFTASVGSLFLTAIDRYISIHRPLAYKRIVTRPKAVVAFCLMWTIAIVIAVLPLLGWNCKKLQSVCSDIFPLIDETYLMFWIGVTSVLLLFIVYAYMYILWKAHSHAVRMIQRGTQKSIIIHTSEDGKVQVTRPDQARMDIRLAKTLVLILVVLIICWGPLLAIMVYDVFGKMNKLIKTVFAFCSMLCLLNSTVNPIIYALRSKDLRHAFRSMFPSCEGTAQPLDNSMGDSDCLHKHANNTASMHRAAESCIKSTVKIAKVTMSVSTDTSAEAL

## COC(=O)C(NC(=O)c1cc(C)n(-c2cccc(C(F)(F)F)c2)n1)c1cccs1 (stereo not shown) [‘60154]
hCB1 [1]; Log [Compound] (M) -11.9208
  Gi1 hCB1: -0.003475
  GoB hCB1: -0.2982
hCB1 [1]; Log [Compound] (M) -12.3979
  Gi1 hCB1: 0.3049
  GoB hCB1: 0.619
hCB1 [1]; Log [Compound] (M) -12.8861
  Gi1 hCB1: 1.261
  GoB hCB1: -2.69
hCB1 [1]; Log [Compound] (M) -13
  Gi1 hCB1: 0.459 and 0.9986
  GoB hCB1: -0.2622 and -1.953
hCB1 [1]; hCB1 Gi1
  pEC50 [95% CI]: 7.6 [7.5 – 7.7]
  EC50: 2.5 nM
hCB1 [1]; hCB1 GoB
  pEC50 [95% CI]: 7.7 [7.7 – 7.8]
  EC50: 18.4 nM
hCB1 [1]; hCB1 Gz
  pEC50 [95% CI]: 7.8 [7.4 – 8.1]
  EC50: 17.5 nM
hCB1 [1]; read-out: Emax [95% CI], hCB1 Gi1
  Emax: 92%
hCB1 [1]; read-out: Emax [95% CI], hCB1 GoB
  Emax: 100%
hCB1 [1]; read-out: Emax [95% CI], hCB1 Gz
  Emax: 121%
CB1 (rCB1)
  % 1H-CP-55,940 displacement (mean) from single point screen: 97.23%
hCB1 [2]; HTLA, hCB1, read-out: Tango ß-arrestin recruitment Emax
  Emax: 39%
hCB1 [2]; Log[drug], M = -4.52
  response, replicate values of concentration-response curve (FigS7f): 20.429 and 104.707 and 123.061 and 26.6803 and 2.239 and 9.553 and 21.4993 and 25.3085 and 22.5804
hCB1 [2]; Log[drug], M = -4.52, individual replicates
  response at Log[drug], M -4.52 (FigS4e): 36.2928 and 40.0634 and 37.595 and 38.9593 and 35.7322 and 28.0596 and 40.2042 and 37.7287 and 36.7316 and 48.023 and 52.3904 and 37.2251
hCB1 [2]; Log[drug], M = -5
  response, replicate values of concentration-response curve (FigS7f): 29.3399 and 77.9872 and 24.9124 and 21.905 and 24.6119 and -7.914 and 14.0694 and 22.9469 and 35.7257 and 39.8379 and 27.6728 and 20.59
hCB1 [2]; Log[drug], M = -5, individual replicates
  response at Log[drug], M -5 (FigS4e): 27.1965 and 33.9994 and 36.3175 and 44.6129 and 35.5189 and 28.3176 and 42.1758 and 38.9685 and 43.9354 and 46.1208 and 46.0399 and 37.7973
hCB1 [2]; Log[drug], M = -5.52
  response, replicate values of concentration-response curve (FigS7f): 24.9035 and 48.7158 and 91.1283 and -6.947 and -26.9779 and -11.1207 and 46.9121 and 22.8407 and -5.557 and 12.4866 and 10.6983 and 18.3267
hCB1 [2]; Log[drug], M = -5.52, individual replicates
  response at Log[drug], M -5.52 (FigS4e): 25.9735 and 23.5078 and 35.2885 and 29.1149 and 28.5437 and 33.06 and 31.1872 and 38.5344 and 34.9915 and 38.6816 and 30.9446 and 24.7853
hCB1 [2]; Log[drug], M = -6
  response, replicate values of concentration-response curve (FigS7f): 35.6397 and 64.0988 and 28.3754 and -0.07579 and -2.1717 and -13.0474 and 37.7825 and -1.0184 and -20.7108 and 24.6113 and 35.271 and 22.6916
hCB1 [2]; Log[drug], M = -6, individual replicates
  response at Log[drug], M -6 (FigS4e): 18.7026 and 18.3517 and 20.9876 and 21.9355 and 21.9032 and 30.9802 and 39.6213 and 23.6016 and 27.6778 and 23.7782 and 27.0192 and 15.1437
hCB1 [2]; Log[drug], M = -6.52
  response, replicate values of concentration-response curve (FigS7f): 40.4184 and 15.2889 and -15.0213 and 0.4345 and 12.418 and 31.9131 and 56.5195 and 30.6699 and -7.454 and 15.9018 and 24.7629 and -25.11
hCB1 [2]; Log[drug], M = -6.52, individual replicates
  response at Log[drug], M -6.52 (FigS4e): 2.7065 and 1.809 and 4.4042 and 2.4679 and 5.955 and 7.47 and 7.413 and 8.766 and 8.7 and 7.813 and 3.502 and 4.219
hCB1 [2]; Log[drug], M = -7
  response, replicate values of concentration-response curve (FigS7f): 42.117 and 22.4701 and 33.4423 and -35.9633 and 6.562 and -3.7308 and 26.543 and 5.232 and -0.3284 and 16.0836 and -9.206 and -14.6626
hCB1 [2]; Log[drug], M = -7, individual replicates
  response at Log[drug], M -7 (FigS4e): -0.1594 and 1.156 and 1.734 and 0.4738 and 1.35 and 4.375 and 5.525 and -1.39 and -1.9125 and 2.9502 and 2.623 and 0.09812
hCB1 [2]; Log[drug], M = -7.52
  response, replicate values of concentration-response curve (FigS7f): 9.097 and 42.2455 and 14.1224 and 6.121 and -38.1578 and 8.235 and 7.554 and -8.104 and 19.7008 and -1.133 and -13.7734
hCB1 [2]; Log[drug], M = -7.52, individual replicates
  response at Log[drug], M -7.52 (FigS4e): -0.8122 and -1.1619 and -0.1273 and 2.722 and 1.436 and 3.312 and 3.337 and -1.53 and 0.254 and -0.2279 and 0.3901 and 2.167
hCB1 [2]; Log[drug], M = -8, individual replicates
  response at Log[drug], M -8 (FigS4e): -0.5798 and -1.11 and -0.9423 and 0.6357 and 0.4201 and 2.003 and 3.003 and -1.545 and 0.894 and 0.1363 and 0.04065 and -0.5839
